Results published in PubChem BioAssay (NCI).
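Method: 48-hour compound exposure of cells in 96-well plates, five concentrations, linear interpolation of endpoints. TGI marks complete inhibition of growth.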

Legend:
Experiment in all cases: NCI-60 cell line screen, 48 h
786-0 renal = test system: 786-0 renal
A498 renal = test system: A498 renal
A549 NSCLC = test system: A549 NSCLC
ACHN renal = test system: ACHN renal
BT-549 breast = test system: BT-549 breast
CAKI-1 renal = test system: CAKI-1 renal
CCRF-CEM leukemia = test system: CCRF-CEM leukemia
COLO 205 colon = test system: COLO 205 colon
DU-145 prostate = test system: DU-145 prostate
EKVX NSCLC = test system: EKVX NSCLC
HCC-2998 colon = test system: HCC-2998 colon
HCT-116 colon = test system: HCT-116 colon
HCT-15 colon = test system: HCT-15 colon
HOP-62 NSCLC = test system: HOP-62 NSCLC
HS 578T breast = test system: HS 578T breast
HT29 colon = test system: HT29 colon
IGROV1 ovarian = test system: IGROV1 ovarian
K-562 leukemia = test system: K-562 leukemia
KM12 colon = test system: KM12 colon
LOX IMVI melanoma = test system: LOX IMVI melanoma
M14 melanoma = test system: M14 melanoma
MALME-3M melanoma = test system: MALME-3M melanoma
MCF7 breast = test system: MCF7 breast
MDA-MB-231 breast = test system: MDA-MB-231 breast
MDA-MB-435 = test system: MDA-MB-435
MDA-N = test system: MDA-N
MOLT-4 leukemia = test system: MOLT-4 leukemia
NCI-H23 lung = test system: NCI-H23 lung
NCI-H460 lung = test system: NCI-H460 lung
NCI-H522 lung = test system: NCI-H522 lung
NCI/ADR-RES ovarian = test system: NCI/ADR-RES ovarian
OVCAR-3 ovarian = test system: OVCAR-3 ovarian
OVCAR-4 ovarian = test system: OVCAR-4 ovarian
OVCAR-5 ovarian = test system: OVCAR-5 ovarian
OVCAR-8 ovarian = test system: OVCAR-8 ovarian
PC-3 prostate = test system: PC-3 prostate
RPMI-8226 leukemia = test system: RPMI-8226 leukemia
RXF 393 renal = test system: RXF 393 renal
SF-268 CNS = test system: SF-268 CNS
SF-295 CNS = test system: SF-295 CNS
SF-539 CNS = test system: SF-539 CNS
SK-MEL-2 melanoma = test system: SK-MEL-2 melanoma
SK-MEL-28 melanoma = test system: SK-MEL-28 melanoma
SK-MEL-5 melanoma = test system: SK-MEL-5 melanoma
SK-OV-3 ovarian = test system: SK-OV-3 ovarian
SN12C renal = test system: SN12C renal
SNB-19 CNS = test system: SNB-19 CNS
SR leukemia = test system: SR leukemia
SW-620 colon = test system: SW-620 colon
T-47D breast = test system: T-47D breast
TK-10 renal = test system: TK-10 renal
U251 CNS = test system: U251 CNS
UACC-257 melanoma = test system: UACC-257 melanoma
UACC-62 melanoma = test system: UACC-62 melanoma
UO-31 renal = test system: UO-31 renal
HL-60(TB) leukemia = test system: HL-60(TB) leukemia
HOP-92 NSCLC = test system: HOP-92 NSCLC
NCI-H226 lung = test system: NCI-H226 lung
SNB-75 CNS = test system: SNB-75 CNS

**Q.** For Cc1ccc(S(=O)(=O)NCCN(CCNS(=O)(=O)c2ccc(C)cc2)S(=O)(=O)c2ccc(C)cc2)cc1, which TGI (786-0 renal) is on record?
**A.** > 100 µM

**Q.** And the TGI (A498 renal)?
**A.** > 100 µM

**Q.** What about the TGI (A549 NSCLC) of the same compound?
**A.** > 100 µM

**Q.** And the TGI (ACHN renal)?
**A.** > 100 µM

**Q.** What about the TGI (BT-549 breast) of the same compound?
**A.** > 100 µM

**Q.** What about the TGI (CAKI-1 renal) of the same compound?
**A.** > 100 µM

**Q.** What about the TGI (CCRF-CEM leukemia) of the same compound?
**A.** > 100 µM

**Q.** What about the TGI (COLO 205 colon) of the same compound?
**A.** > 100 µM

**Q.** And the TGI (DU-145 prostate)?
**A.** > 100 µM

**Q.** And the TGI (EKVX NSCLC)?
**A.** > 100 µM

**Q.** What about the TGI (HCC-2998 colon) of the same compound?
**A.** > 100 µM

**Q.** And the TGI (HCT-116 colon)?
**A.** > 100 µM

**Q.** And the TGI (HCT-15 colon)?
**A.** > 100 µM

**Q.** What about the TGI (HOP-62 NSCLC) of the same compound?
**A.** > 100 µM

**Q.** And the TGI (HS 578T breast)?
**A.** > 100 µM

**Q.** What about the TGI (HT29 colon) of the same compound?
**A.** > 100 µM

**Q.** What about the TGI (IGROV1 ovarian) of the same compound?
**A.** > 100 µM

**Q.** What about the TGI (K-562 leukemia) of the same compound?
**A.** > 100 µM

**Q.** And the TGI (KM12 colon)?
**A.** > 100 µM

**Q.** And the TGI (LOX IMVI melanoma)?
**A.** > 100 µM

**Q.** And the TGI (M14 melanoma)?
**A.** > 100 µM

**Q.** What about the TGI (MALME-3M melanoma) of the same compound?
**A.** 60 µM

**Q.** What about the TGI (MCF7 breast) of the same compound?
**A.** > 100 µM

**Q.** And the TGI (MDA-MB-231 breast)?
**A.** > 100 µM

**Q.** What about the TGI (MDA-MB-435) of the same compound?
**A.** > 100 µM

**Q.** And the TGI (MDA-N)?
**A.** > 100 µM

**Q.** And the TGI (MOLT-4 leukemia)?
**A.** > 100 µM

**Q.** What about the TGI (NCI-H23 lung) of the same compound?
**A.** > 100 µM

**Q.** And the TGI (NCI-H460 lung)?
**A.** > 100 µM

**Q.** What about the TGI (NCI-H522 lung) of the same compound?
**A.** > 100 µM

**Q.** And the TGI (NCI/ADR-RES ovarian)?
**A.** > 100 µM

**Q.** And the TGI (OVCAR-3 ovarian)?
**A.** > 100 µM

**Q.** And the TGI (OVCAR-4 ovarian)?
**A.** 56 µM

**Q.** And the TGI (OVCAR-5 ovarian)?
**A.** > 100 µM

**Q.** And the TGI (OVCAR-8 ovarian)?
**A.** > 100 µM

**Q.** And the TGI (PC-3 prostate)?
**A.** > 100 µM

**Q.** What about the TGI (RPMI-8226 leukemia) of the same compound?
**A.** > 100 µM

**Q.** What about the TGI (RXF 393 renal) of the same compound?
**A.** > 100 µM

**Q.** What about the TGI (SF-268 CNS) of the same compound?
**A.** > 100 µM

**Q.** And the TGI (SF-295 CNS)?
**A.** > 100 µM

**Q.** What about the TGI (SF-539 CNS) of the same compound?
**A.** > 100 µM

**Q.** And the TGI (SK-MEL-2 melanoma)?
**A.** > 100 µM

**Q.** What about the TGI (SK-MEL-28 melanoma) of the same compound?
**A.** > 100 µM

**Q.** And the TGI (SK-MEL-5 melanoma)?
**A.** > 100 µM

**Q.** And the TGI (SK-OV-3 ovarian)?
**A.** > 100 µM

**Q.** What about the TGI (SN12C renal) of the same compound?
**A.** > 100 µM

**Q.** And the TGI (SNB-19 CNS)?
**A.** > 100 µM

**Q.** What about the TGI (SR leukemia) of the same compound?
**A.** > 100 µM

**Q.** And the TGI (SW-620 colon)?
**A.** > 100 µM

**Q.** And the TGI (T-47D breast)?
**A.** > 100 µM

**Q.** And the TGI (TK-10 renal)?
**A.** > 100 µM

**Q.** And the TGI (U251 CNS)?
**A.** > 100 µM

**Q.** And the TGI (UACC-257 melanoma)?
**A.** > 100 µM

**Q.** And the TGI (UACC-62 melanoma)?
**A.** > 100 µM

**Q.** What about the TGI (UO-31 renal) of the same compound?
**A.** > 100 µM

**Q.** Which results are given for CCCCCCCC/C=C\CCCCCCC/C=C1/C[C@](/C=C/C(=O)OC)(CO)OC1=O?
**A.** TGI (786-0 renal): 10.3 µM; TGI (A498 renal): 21.2 µM; TGI (A549 NSCLC): 17.3 µM; TGI (ACHN renal): 16.7 µM; TGI (BT-549 breast): 17.8 µM; TGI (CAKI-1 renal): 12.5 µM; TGI (COLO 205 colon): 5.04 µM; TGI (DU-145 prostate): 23.4 µM; TGI (EKVX NSCLC): 23 µM; TGI (HCC-2998 colon): 10.1 µM; TGI (HCT-116 colon): 15.5 µM; TGI (HCT-15 colon): 20.5 µM; TGI (HL-60(TB) leukemia): 10.3 µM; TGI (HOP-62 NSCLC): 19 µM; TGI (HOP-92 NSCLC): 20.3 µM; TGI (HS 578T breast): 9.29 µM; TGI (HT29 colon): 20.9 µM; TGI (IGROV1 ovarian): 23.7 µM; TGI (K-562 leukemia): > 32.5 µM; TGI (KM12 colon): 23.9 µM; TGI (LOX IMVI melanoma): 12.8 µM; TGI (M14 melanoma): 11.6 µM; TGI (MALME-3M melanoma): 8.74 µM; TGI (MCF7 breast): 20.8 µM; TGI (MDA-MB-231 breast): 17.7 µM; TGI (MDA-MB-435): 7.41 µM; TGI (MDA-N): 3.19 µM; TGI (MOLT-4 leukemia): > 21.5 µM; TGI (NCI-H226 lung): 15.8 µM; TGI (NCI-H23 lung): 24.9 µM; TGI (NCI-H460 lung): 19.9 µM; TGI (NCI-H522 lung): 17.6 µM; TGI (NCI/ADR-RES ovarian): 24 µM; TGI (OVCAR-3 ovarian): 24 µM; TGI (OVCAR-4 ovarian): 16.9 µM; TGI (OVCAR-5 ovarian): 20.3 µM; TGI (OVCAR-8 ovarian): 19.2 µM; TGI (PC-3 prostate): 14.5 µM; TGI (RXF 393 renal): 28.5 µM; TGI (SF-268 CNS): 19.7 µM; TGI (SF-295 CNS): 17.1 µM; TGI (SF-539 CNS): 2.84 µM; TGI (SK-MEL-2 melanoma): 27.6 µM; TGI (SK-MEL-28 melanoma): 10.2 µM; TGI (SK-MEL-5 melanoma): 18 µM; TGI (SK-OV-3 ovarian): 24.3 µM; TGI (SN12C renal): 14.8 µM; TGI (SNB-19 CNS): 20.3 µM; TGI (SNB-75 CNS): 20.4 µM; TGI (SR leukemia): > 31.7 µM; TGI (SW-620 colon): 11.4 µM; TGI (T-47D breast): 19.8 µM; TGI (TK-10 renal): 15.3 µM; TGI (U251 CNS): 21.2 µM; TGI (UACC-257 melanoma): 29.6 µM; TGI (UACC-62 melanoma): 22.4 µM; TGI (UO-31 renal): 15 µM
